Source: article PMC9457600, “Synthesis, Leishmanicidal, Trypanocidal, Antiproliferative Assay and Apoptotic Induction of (2-Phenoxypyridin-3-yl)naphthalene-1(2H)-one Derivatives” (Molecules, 2022)

Key:
[1] = tested on: epimastigotes of Trypanosoma cruzi strain MHOM/VE/92/YBM; assay: MTT viability of T. cruzi epimastigotes; assay type: cell-based; conditions: for EC50: 72 h, epimastigotes
VERO cells = assay: MTT cytotoxicity on VERO cells; assay type: cell-based, African green monkey; conditions: Chlorocebus sabaeus, 72 h
Protocol: (§1) Vero cells were derived from the kidney of an African green monkey, cells were maintained in Dulbecco’s Modified Eagle’s Medium (DMEM), supplemented with 10% heat-inactivated FBS and penicillin-streptomycin solution 1% at 37 °C, 5% CO2 atmosphere and > 95% humidity. We evaluated through a colorimetric method the effect of compounds 8–23 on the promastigotes of L. brasiliensis. Briefly, 96-well plates were used, where 2 × 10^6 parasites/mL were seeded. A concentration of 50 μM was used for each compound and an incubation time of 96 h at 29 °C. 3-(4,5-dimethylthiazol-2-yl)-2,5-diphenyl tetrazolium bromide (MTT) 1 μg/mL was added and incubated in darkness for 4 h, acidic isopropanol (4N) was added and the plate was read at 570 nm in a spectrophotometer Synergy HT (Biotek). Miltefosine was used as a reference drug. The EC50 calculation of the selected compound was performed using growth curves. Direct counting was used to monitor the proliferation of parasites, three independent experiments were performed for each concentration of the compounds evaluated. The in vitro evaluations of compounds toxicity by MTT in VERO and BMDM cells follow a methodology described above with some modifications. The selectivity index was calculated with SI = CC50/EC50, where CC50 was the maximum concentration range of compounds 10, 21–23 used to evaluate cytotoxicity in VERO and BMDM cells. The trypanocidal activity of compounds 8–23 was evaluated on the viability of T. cruzi epimastigotes through a colorimetric method adapted with minor modifications. 2 × 10^6 parasites/mL were seeded in a 96-well plate, adding 50 μM of each derivative dissolved in DMSO (final concentration remained below 1%). The plate was incubated for 96 h at 29 °C. Then, 1 μg/mL of 3-(4,5-dimethylthiazol-2-yl)-2,5-diphenyl tetrazolium bromide (MTT) was added and incubated in darkness for 4 h. After this time, acidic isopropanol (4N) was added and the plate was read at 570 nm in a spectrophotometer Synergy HT (Biotek). Benznidazole was used as a reference drug. The in vitro evaluations of compounds toxicity by MTT in VERO and BMDM cells follow a methodology described above with some modifications. Cells were counted in suspension and seeded at 20 × 10^3 cells/well. The test was carried out in triplicate on 96-well microplates in different concentrations: 50 μM, 100 μM, 200 μM and 300 μM, untreated cells and reference drug (benznidazole) controls.

BMDM macrophages = assay: MTT cytotoxicity on BMDM macrophages; assay type: cell-based; conditions: Mus musculus, 72 h
Text: as §1, with “T. cruzi epimastigotes MHOM/VE/92/YBM venezuelan strain” for “Vero cells”, “used to test” for “derived from”, “anti T. cruzi in vitro studies. The strain was” for “kidney of an African green monkey, cells were”, “a modified LIT medium” for “Dulbecco’s Modified Eagle’s Medium (DMEM), supplemented”, “fetal bovine serum (FBS). Mouse bone marrow was used to obtain BMDM macrophages. Mouse fibroblast-conditioned medium L-929 was used for the differentiation” for “heat-inactivated FBS”, “maintenance of BMDM macrophages.” for “penicillin-streptomycin solution 1% at 37 °C, 5% CO2 atmosphere and > 95% humidity.”

K562-TAX = assay: MTS antiproliferative assay K562-TAX; assay type: cell-based, human; conditions: Homo sapiens, K562-Tax, 72 h, 72 h of incubation; paclitaxel-resistant
Text: (§2) The cell lines used were acquired from the American Type Culture Collection (ATCC), CCRF-CEM (T lymphoblastic leukemia), K562 ([…]), U2OS (osteosarcoma), HCT116 (colon carcinoma), A549 (lung adenocarcinoma) and HCT116p53−/− (HCT116 cell line mutated in p53) Horizon Discovery Ltd., (Waterbeach, Cambridge, United Kingdom).
(§3) In our laboratory, IMTM, we generated the daunorubicin-resistant subline of CCRF-CEM cells (CEM-DNR bulk) and paclitaxel-resistant subline K562-TAX, as described previously. […] Both ABC transporters are involved in drug resistance. As a control, human fibroblasts MRC-5 and BJ cell lines were used. […] Adherent cells were passaged using PBS containing 0.25% trypsin plus 0.01% EDTA (ethylenediamine tetraacetic acid) every 2–3 days.
(§4) The antiproliferative activity of compounds was determined using a standard 3-(4,5-dimethylthiazol-2yl)-5-(3-carboxymethoxyphenyl)-2-(4-sulfophenyl)-2H-tetrazolium (MTS) reduction assay on a robotic high throughput screening platform (HighResBio, Boston, MA, USA) following treatment of cells for 3–7 days. The IC50 values were calculated from the appropriate dose–response curves with Dotmatics software (San Diego, CA, USA).

CEM-DNR = assay: MTS antiproliferative assay CEM-DNR; assay type: cell-based; conditions: Homo sapiens, 72 h of incubation, daunorubicin-resistant
Text: as §2, §3, §4

K562 = assay: MTS antiproliferative assay K562; assay type: cell-based, human; conditions: Homo sapiens, K562, 72 h, 72 h of incubation
Text: as §2, §3, §4

MRC-5 = assay: MTS assay on non-malignant MRC-5; assay type: cell-based; conditions: MRC5; noncancerous human cell line
Protocol: as §3, §4

[2] = tested on: promastigotes of Leishmania (V.) braziliensis strain MHOM/CO/87/UA301; assay: MTT viability of L. braziliensis promastigotes; assay type: cell-based
Protocol: Promastigotes of Leishmania (V.) braziliensis strain MHOM/CO/87/UA301 were isolated from footpad lesions in Balb/C mice previously infected. In the process of maintenance and differentiation of the parasites, the LTI medium (tryptose 15 g/L, yeast extract 5 g/L, liver extract 2 g/L, hemin-NaOH 0.02 g/L, glucose 4 g/L, NaCl 9 g/L, KCl 0.4 g/L Na2HPO4, 7.5 g/L at pH 7.4) supplemented with 10% fetal calf serum and maintained at 29 °C was used.
Briefly, 96-well plates were used, where 2 × 10^6 parasites/mL were seeded. A concentration of 50 μM was used for each compound and an incubation time of 96 h at 29 °C. 3-(4,5-dimethylthiazol-2-yl)-2,5-diphenyl tetrazolium bromide (MTT) 1 μg/mL was added and incubated in darkness for 4 h, acidic isopropanol (4N) was added and the plate was read at 570 nm in a spectrophotometer Synergy HT (Biotek). Miltefosine was used as a reference drug. The EC50 calculation of the selected compound was performed using growth curves. Direct counting was used to monitor the proliferation of parasites, three independent experiments were performed for each concentration of the compounds evaluated. The in vitro evaluations of compounds toxicity by MTT in VERO and BMDM cells follow a methodology described above with some modifications [60].

BJ = assay: MTS assay on non-malignant BJ; assay type: cell-based; conditions: noncancerous human cell line
Protocol: as §3, §4

CCRF-CEM = assay: MTS antiproliferative assay CCRF-CEM; assay type: cell-based; conditions: Homo sapiens, 72 h of incubation
Text: as §2, §3, §4

A549 = assay: MTS antiproliferative assay A549; assay type: cell-based, human; conditions: Homo sapiens, A549, 72 h, 72 h of incubation
Text: as §2, §3, §4

U2OS = assay: MTS antiproliferative assay U2OS; assay type: cell-based; conditions: Homo sapiens, 72 h of incubation
Text: as §2, §3, §4

HCT-116 = assay: MTS antiproliferative assay HCT116; assay type: cell-based; conditions: Homo sapiens, 72 h of incubation
Text: as §2, §3, §4

HCT116p53−/− = assay: MTS antiproliferative assay HCT116p53-/-; assay type: cell-based; conditions: Homo sapiens; 72 h of incubation
Text: as §2, §3, §4

| SMILES | EC50 ([1]; Trypanosoma cruzi) [µM] | EC50 (VERO cells) [µM] | EC50 (BMDM macrophages) [µM] | IC50 (K562-TAX) [µM] | IC50 (CEM-DNR) [µM] | IC50 (K562) [µM] | IC50 (MRC-5) [µM] | EC50 ([2]; 72 h, promastigotes) [µM] | EC50 ([2]; promastigotes, 72 h) [µM] | IC50 (BJ) [µM] | IC50 (CCRF-CEM) [µM] | IC50 (A549) [µM] | IC50 (U2OS) [µM] | IC50 (HCT-116) [µM] | IC50 (HCT116p53−/−) [µM] | melting point [°C] | also measured |
| --- | --- | --- | --- | --- | --- | --- | --- | --- | --- | --- | --- | --- | --- | --- | --- | --- | --- |
| O=C(Cn1ccnc1[N+](=O)[O-])NCc1ccccc1 [Bnz, benznidazole, reference compound] | 30 ± 0.7 | 120 ± 2.3 |  |  |  |  |  |  |  |  |  |  |  |  |  |  | SIV/Tc selectivity index on T. cruzi/VERO ([1]; SI = CC50/EC50): 4 |
| O=C1/C(=C/c2cccnc2Oc2ccccc2)CCc2ccccc21 [Compound 8, (E)-3,4-Dihydro-2-[(2-phenoxypyridin-3-yl)methylene]naphthalen-1(2H)-one] | > 60 | > 100 | > 1000 | 20 ± 2.16 | 38.2 ± 6.26 | > 50 | > 50 | ≤ 60 | 57.6 ± 1.62 | > 50 | 4.15 ± 0.74 | > 50 | > 50 | > 50 | > 50 |  |  |
| COc1cccc2c1CC/C(=C\c1cccnc1Oc1ccccc1)C2=O [Compound 9, (E)-3,4-Dihydro-5-methoxy-2-[(2-phenoxypyridin-3-yl)methylene]naphthalen-1(2H)-one] | > 60 | < 100 | > 1000 | 24.1 ± 6.02 | 26.3 ± 7.95 | 19.6 ± 3.67 | > 50 | ≥ 60 | > 60 | > 50 | 6.15 ± 0.84 | 30 ± 5.83 | 19.6 ± 3.65 | 24.8 ± 3.77 | 20.2 ± 3.1 |  |  |
| COc1ccc2c(c1)CC/C(=C\c1cccnc1Oc1ccccc1)C2=O [Compound 10, (E)-3,4-Dihydro-6-methoxy-2-[(2-phenoxypyridin-3-yl)methylene]naphthalen-1(2H)-one] | > 60 | 89 ± 15 | < 1000 | 30.1 ± 7.28 | 33.7 ± 6.78 | 44.6 ± 3.67 | > 50 |  |  | > 50 | 13.2 ± 1.82 | > 50 | > 50 | > 50 | > 50 | 134 | SIV/Lb selectivity index on L. braziliensis/VERO ([2]; SI = CC50/EC50): 4 |
| COc1ccc2c(c1)C(=O)/C(=C/c1cccnc1Oc1ccccc1)CC2 [Compound 11, (E)-3,4-Dihydro-7-methoxy-2-[(2-phenoxypyridin-3-yl)methylene]naphthalen-1(2H)-one] | > 60 | < 100 | < 1000 | > 50 | 45.1 ± 7.9 | > 50 | > 50 | ≥ 60 | > 60 | > 50 | 8.79 ± 0.76 | > 50 | > 50 | > 50 | > 50 | 136 |  |
| O=C1/C(=C/c2cccnc2Oc2ccc(Cl)cc2)CCc2ccccc21 [Compound 20, (E)-2-{[2-(4-Chlorophenoxy)pyridin-3-yl]methylene}-3,4-dihydronaphthalen-1(2H)-one] | < 60 | > 1000 | > 1000 | 32.5 ± 2.93 | 28.2 ± 4.83 | 23.6 ± 2.55 | > 50 | ≥ 60 | > 60 | > 50 | 6.07 ± 0.63 | 37 ± 3.98 | 27.9 ± 4.13 | 26.2 ± 2.4 | 25.6 ± 3.77 | 130 | EC50 [1]: 57.4 ± 3.6 µM |
| COc1cccc2c1CC/C(=C\c1cccnc1Oc1ccc(Cl)cc1)C2=O [Compound 21, (E)-2-{[2-(4-Chlorophenoxy)pyridin-3-yl]methylene}-3,4-dihydro-5-methoxynaphthalen-1(2H)-one] | < 60 | 103 ± 15 | > 1000 | 23.6 ± 8.79 | 35.8 ± 4.25 | 32.7 ± 3.67 | > 50 | 9.24 ± 1 |  | > 50 | 10.4 ± 2.46 | 46.9 ± 4.02 | 46.8 ± 4.26 | 38.1 ± 5.44 | 31.1 ± 4.45 |  | EC50 [1]: 35.5 ± 10 µM |
| COc1ccc2c(c1)C(=O)/C(=C/c1cccnc1Oc1ccc(Cl)cc1)CC2 [Compound 23, (E)-2-{[2-(4-Chlorophenoxy)pyridin-3-yl]methylene}-3,4-dihydro-7-methoxynaphthalen-1(2H)-one] | 4.91 ± 0.98 | 100 ± 16 | > 1000 | 16.1 ± 4.44 | 23.9 ± 4.98 | > 50 | > 50 | 5.69 ± 2.65 |  | > 50 | 15.7 ± 1.54 | > 50 | > 50 | > 50 | > 50 | 160 | SIV/Tc selectivity index on T. cruzi/VERO ([1]; SI = CC50/EC50): 20; selectivity index T. cruzi vs BMDM (CC50/EC50) ([1]; SI = CC50/EC50): > 204; SIB/Lb selectivity index on L. braziliensis/BMDM ([2]; SI = CC50/EC50): 176; SIV/Lb selectivity index on L. braziliensis/VERO ([2]; SI = CC50/EC50): 18 |
| CCCCCCCCCCCCCCCCOP(=O)([O-])OCC[N+](C)(C)C [Mil, miltefosine, reference compound] |  |  | 125 ± 4.7 |  |  |  |  | 25 ± 1.4 |  |  |  |  |  |  |  |  | SIB/Lb selectivity index on L. braziliensis/BMDM ([2]; SI = CC50/EC50): 5 |
